What is called Km is the substrate concentration at which the rate is half of its maximum.

Like-named read-outs stand apart in the source and are kept apart here. Some results are limits rather than exact numbers.

Consider five compounds from patent US4981788A, “Novel acetylpolyamine amidohydrolase” (Kyowa Hakko Kogyo Co., Ltd., priority 1987, dated 1991).

Experiment [1] has as its target T1, acetylpolyamine amidohydrolase (the present enzyme, product purified to homogeneity) (Mycoplana ramosa, UniProt Q48935).
T1 construct: novel acetylpolyamine amidohydrolase of the present invention accumulated within the grown cells; made in house; host or cells: Mycoplana (natural producer)
T1 sequence (Q48935 1-341): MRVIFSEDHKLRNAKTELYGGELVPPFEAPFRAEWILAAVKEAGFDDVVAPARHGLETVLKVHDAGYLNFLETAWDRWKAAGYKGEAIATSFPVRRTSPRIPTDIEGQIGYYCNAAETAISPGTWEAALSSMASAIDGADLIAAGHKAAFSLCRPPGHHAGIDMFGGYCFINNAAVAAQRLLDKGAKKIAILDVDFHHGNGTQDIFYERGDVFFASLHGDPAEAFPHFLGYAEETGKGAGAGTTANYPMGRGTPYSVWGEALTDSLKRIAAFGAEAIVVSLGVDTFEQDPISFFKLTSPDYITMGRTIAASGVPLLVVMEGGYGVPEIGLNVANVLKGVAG
The experiment is described as follows: Enzyme activity on acetylpolyamine substrates, product purified to homogeneity (Method 2 / Method 3). Format: biochemical, Mycoplana bullata. The note with it: for Optimum pH: 37° C., phosphate and borate buffers, per substrate; for Vmax, Mycoplana bullata enzyme: pH 9.0; for Relative activity, Mycoplana bullata enzyme: phosphate buffer pH 9.0, substrate 0.833 mM, acetylputrescine = 100. An excerpt:
[Method 2] (Assay when acetylputrescine, acetylcadaverine, N^1 -acetylspermidine and N^8 -acetylspermidine are used as substrate:)
The acetylpolyamine can be hydrolyzed by the acetylpolyamine amidohydrolase, as described in [Method 1], and the corresponding free polyamine thus formed is then oxidized by putrescine oxidase. Putrescine oxidase derived from Micrococcus rubens is known to have an activity upon putrescine, cadaverine and spermidine [Adachi, et al., Agric. Biol. Chem, 30, 1202 (1966)]. […] The actual analytical procedure is as described below.
The above reagents, (b) through (h), were put in a cuvette (d: 1.0 cm) and the mixture was preincubated at 37° C. for 2 minutes. The substrate solution (a) was then added, and the resulting mixture was incubated at 37° C. Absorbance at 500 nm was measured over a period of 3 to 5 minutes, and the change in absorbance per minute (ΔODsample) was determined from the linear portion of the plotted curve. For control, the same procedure as above was carried out, using distilled water as reference.
One unit of acetylpolyamine amidohydrolase is defined as its amount necessary to hydrolyze 1 μmole of acetylputrescine at 37° C. for one minute (or the amount necessary to form 0.5 μmole of quinoneimine pigment formed in the method for measuring the enzyme activity described above).
[Method 3] (Assay when acetylspermine is used as substrate:)
Acetylspermine is hydrolyzed by the action of acetylpolyamine amidohydrolase into free form of spermine. The free form of spermine can be oxidized by a polyamine oxidase derived from Aspergillus terreus to produce hydrogen peroxide. Two molar equivalents of hydrogen peroxide is formed from one molar equivalent of spermine. Thus, the enzyme activity can be measured by quantitative determination of the hydrogen peroxide according to the method described above. However, since the above polyamine oxidase also acts upon acetylspermine, it is impossible to exactly measure the activity of acetylpolyamine amidohydrolase by the standard assay. […] The actual procedure is described below.
Reagents (b) through (d) given in item (1) were put in a test tube and the mixture was preincubated at 37° C. for 2 minutes. The substrate solution (a) was then added, the resulting mixture was incubated at 37° C. for 10 minutes, and the reaction was stopped by addition of the termination (e). A sample solution (100 μl) was taken from the reaction mixture and subjected to HPLC as described above to separate free form of spermine from acetylspermine. Generally, acetylspermine is eluted at a position of 38 minutes after the start of elution and free form of spermine at a position of 41 minutes after the start of elution. A sample solution (200 μl), taken from the eluate containing free form of spermine, was mixed in a cuvette with reagents (a) through (e) given in item (2) above, the mixture was incubated at 37° C. for 10 minutes, and the absorbance at 755 nm was measured. For control, the same procedure as above was carried out using 200 μl of Elunt A in place of the sample solution, as reference.
The concentration of free form of spermine in the reaction mixture can be determined from a calibration curve previously prepared on the basis of aqueous soluitons of free form of spermine with different concentrations. If the concentration of free form of spermine contained in 150 μl of the reaction mixture is taken as P (mM), then the potency (A) for 1 ml of the enzyme solution can be expressed by the following equation: […]
The activities upon acetylputrescine, acetylcadaverine, N^1 -acetylspermidine and N^8 -acetylspermidine were measured by [Method 2] in a phosphate buffer (pH 9.0) at a substrate concentration of 0.833 mM, and the activity upon acetyl-spermine was measured by [Method 3] under the same conditions. […] Km values, determined from the Lineweaver-Burk plot, are also listed in the same table. […]

Experiment [2] concerns the target T2, acetylpolyamine amidohydrolase (the present enzyme, partially purified product) (Mycoplana ramosa, UniProt Q48935).
T2 construct: novel acetylpolyamine amidohydrolase of the present invention accumulated within the grown cells; made in house; host or cells: Mycoplana (natural producer; cells grown in culture)
T2 sequence (Q48935 1-341): T1 sequence (Q48935 1-341)
The experiment is described as follows: Enzyme activity on acetylpolyamine substrates, partially purified product (substrate specificity, optimum pH/temperature, Km). Format: biochemical, Mycoplana bullata. The note with it: for Optimum pH: pH 6 to 10, bis-Tris propane buffer, per substrate; for Relative activity, the present enzyme: pH 7.0, activity against acetylputrescine defined as 100. The method, then:
Activity of the present enzyme (partially purified products) is measured according to the following procedure. That is, 0.1 ml of an enzyme solution is added to a reagent solution consisting of 1.5 ml of 0.1 M phosphate buffer (pH 7.0), 0.05 ml of 50 mM acetylpolyamine, 0.4 U of putrescine oxidase (when acetylputrescine, acetylcadaverine or acetylspermidine is used as substrate) or polyamine oxidase (when acetylspermidine or acetylspermine is used as substrate), 0.5 ml of 2.4 mM 4-aminoantipyrine, 0.5 ml of 42 mM phenol and 20 U of peroxidase. The mixture is incubated at 37° C., and the absorbance of quinoneimine pigment formed at 500 nm is measured.
In terms of the enzyme activity, the amount of enzyme that can hydrolyze 1 μmole of a substrate in one minute is defined as one unit (1 U).
The relative activities of acetylpolyamine amidohydrolases against various type of acetylpolyamine, defining the activities against acetylputrescine as 100 under a condition of pH 7.0, are as shown in Table 1 below.
Enzyme activity was measured at different pH levels ranging from 6 to 10 by using bis-Tris propane buffer solutions. The optimum pH was 9 for acetylputrescine and acetylcadaverine, and 8 for N^1 -acetylspermidine, N^8 -acetylspermidine and acetylspermine, as shown in FIG. 1.
The optimum working temperature for the present enzyme was about 50° C., when the relative activity was determined, using acetylputrescine as substrate, as shown in FIG. 4. The optimum temperatures for the other acetylpolyamine amidohydrolases were 30° to 40° C. This clearly distinguishes the present enzyme from the known enzymes.
Km values of the present enzyme and the other known enzymes for various types of acetylpolyamine at pH 7.0 were determined from the Line weaver-Burk plot [refer to J. Am. Chem. Soc., 56, 658 (1934)].

Experiment [3] deals with E3: Enzyme derived from Micrococcus luteus (acetylpolyamine amidohydrolase). The conditions noted are these: pH 7.0, cited from earlier work; for Relative activity, E3: activity against acetylputrescine defined as 100.
The subject of experiment [4] is E2: Enzyme derived from Arthrobacter sp. (acetylpolyamine amidohydrolase). The conditions noted are these: pH 7.0, cited from earlier work; for Relative activity, E2: activity against acetylputrescine defined as 100.
In experiment [5] the test system is E1: Enzyme derived from Streptomyces avellaneus (acetylpolyamine amidohydrolase). The conditions noted are these: cited from earlier work; for Relative activity, E1: activity against acetylputrescine defined as 100; for Relative activity, St. avellaneus enzyme: acetylputrescine = 100.
Setting [6] is: reported reference data in Table 5.

For the compound `CC(=O)NCCCCNCCCN` [N^8 -Acetylspermidine], in experiment [1], the “Substrate concentration at which substrate inhibition was observed” value is listed as at least 1 mM; the “Optimum pH” value is 9; the “Vmax, Mycoplana bullata enzyme” value is given as 19.8 u/mg; the “Relative activity, Mycoplana bullata enzyme” value is listed as 60%. Moreover, in experiment [2], the “Optimum pH” value turned out to be 8 and the “Relative activity, the present enzyme” value amounted to 51%. Moreover, in experiment [3], the “Relative activity, E3” value is on record as 85.1% and the Michaelis-Menten constant (Km) is 380 µM.
For the compound `CC(=O)NCCCNCCCCNCCCN` [Acetylspermine], in experiment [1], the “Substrate concentration at which substrate inhibition was observed” value was above 1.6 mM; the “Optimum pH” value turned out to be 10; the “Vmax, Mycoplana bullata enzyme” value turned out to be 7.7 u/mg; the “Relative activity, Mycoplana bullata enzyme” value amounted to 37%. Besides, in experiment [1] (pH 9.0, Lineweaver-Burk plot, read-out: Km, Mycoplana bullata enzyme), the Km came to 290 µM. The “Relative activity, E2” value in experiment [4] is given as 3%. In addition, in experiment [2], the “Optimum pH” value is 8 and the “Relative activity, the present enzyme” value is recorded as 24%. For the same compound, the Michaelis constant (Km) in experiment [2] (pH 7.0, Lineweaver-Burk plot) came out at 160 µM. The “Relative activity, E1” value in experiment [5] (pH 7.0) is recorded as 0.4%. The “Relative activity, St. avellaneus enzyme” value in experiment [5] (setting [6]) is reported as 0.4%. For the same compound, in experiment [3], the “Relative activity, E3” value is 2.1%.
As for `CC(=O)NCCCCCN` [Acetylcadaverine], in experiment [1], the “Substrate concentration at which substrate inhibition was observed” value was at least 1 mM; the “Vmax, Mycoplana bullata enzyme” value is 18.8 u/mg; the “Relative activity, Mycoplana bullata enzyme” value was found to be 72%. Further, in experiment [4], the “Relative activity, E2” value was 45% and the Michaelis-Menten constant (Km) is 1600 µM. In experiment [2], the “Optimum pH” value was 9 and the “Relative activity, the present enzyme” value came out at 71%. In addition, in experiment [3], the “Relative activity, E3” value is 12.5%.
As to Acetylspermidine, in experiment [1], the “Optimum pH” value is on record as 9. Further, the “Relative activity, E2” value in experiment [4] is 30%. In addition, the Michaelis constant (Km) in experiment [4] was 500 µM; in experiment [5] (pH 7.0, read-out: Km, E1) it was 1100 µM; in experiment [5] (reported reference data in Table 5, read-out: Km, St. avellaneus enzyme), 1100 µM. In addition, the “Relative activity, E1” value in experiment [5] (pH 7.0) is 9.1%. The “Relative activity, St. avellaneus enzyme” value in experiment [5] (setting [6]) is 9.1%.
`CC(=O)NCCCNCCCCN` [N^1 -Acetylspermidine]: in experiment [1], the “Substrate concentration at which substrate inhibition was observed” value was at least 1 mM; the “Optimum pH” value was 9; the “Vmax, Mycoplana bullata enzyme” value is given as 20.5 u/mg; the “Relative activity, Mycoplana bullata enzyme” value stood at 61%. In experiment [2], the “Optimum pH” value worked out at 8 and the “Relative activity, the present enzyme” value is listed as 108%. Besides, in experiment [3], the “Relative activity, E3” value was 3.5%.
